In ChEMBL document CHEMBL5724806, “Unraveling interindividual differences and functional consequences of gut microbial metabolism of immunosuppressants” (2024):

Assays:
Assay type in all cases: ADME
[1] = (§1) The drug is tested on Bifidobacterium longum strain: DSM20088 for biotransformation under anaerobic condition. The drug concentrations were measured over 6 timepoints collected between 0 and 12 hours of incubation by liquid-chromatography-coupled mass spectrometry (LC–MS); parameters: dose 5 uM, timepoint 0, 1.5, 3, 6, 9, 12 hours; conditions: 5 µM
[2] = The drug is tested on Collinsella aerofaciens strain: DSM3979 for biotransformation under anaerobic condition. The drug concentrations were measured over 6 timepoints collected between 0 and 12 hours of incubation by liquid-chromatography-coupled mass spectrometry (LC–MS); parameters: dose 5 uM, timepoint 0, 1.5, 3, 6, 9, 12 hours; conditions: 5 µM
[3] = The drug is tested on Bacteroides caccae strain: DSM19024 for biotransformation under anaerobic condition. The drug concentrations were measured over 6 timepoints collected between 0 and 12 hours of incubation by liquid-chromatography-coupled mass spectrometry (LC–MS); parameters: dose 5 uM, timepoint 0, 1.5, 3, 6, 9, 12 hours; conditions: 5 µM
[4] = The drug is tested on Bacteroides fragilis strain: DSM2151 for biotransformation under anaerobic condition. The drug concentrations were measured over 6 timepoints collected between 0 and 12 hours of incubation by liquid-chromatography-coupled mass spectrometry (LC–MS); parameters: dose 5 uM, timepoint 0, 1.5, 3, 6, 9, 12 hours; conditions: 5 µM
[5] = The drug is tested on Bacteroides uniformis strain: DSM6597 for biotransformation under anaerobic condition. The drug concentrations were measured over 6 timepoints collected between 0 and 12 hours of incubation by liquid-chromatography-coupled mass spectrometry (LC–MS); parameters: dose 5 uM, timepoint 0, 1.5, 3, 6, 9, 12 hours; conditions: 5 µM
[6] = The drug is tested on Bacteroides vulgatus strain: DSM1447 for biotransformation under anaerobic condition. The drug concentrations were measured over 6 timepoints collected between 0 and 12 hours of incubation by liquid-chromatography-coupled mass spectrometry (LC–MS); parameters: dose 5 uM, timepoint 0, 1.5, 3, 6, 9, 12 hours; conditions: phocaeicola vulgatus, 5 µM
[7] = The drug is tested on Blautia hansenii strain: DSM20583 for biotransformation under anaerobic condition. The drug concentrations were measured over 6 timepoints collected between 0 and 12 hours of incubation by liquid-chromatography-coupled mass spectrometry (LC–MS); parameters: dose 5 uM, timepoint 0, 1.5, 3, 6, 9, 12 hours; conditions: 5 µM
[8] = The drug is tested on Clostridium scindens strain: DSM5676 for biotransformation under anaerobic condition. The drug concentrations were measured over 6 timepoints collected between 0 and 12 hours of incubation by liquid-chromatography-coupled mass spectrometry (LC–MS); parameters: dose 5 uM, timepoint 0, 1.5, 3, 6, 9, 12 hours; conditions: 5 µM
[9] = The drug is tested on Dorea formicigenerans strain: DSM3992 for biotransformation under anaerobic condition. The drug concentrations were measured over 6 timepoints collected between 0 and 12 hours of incubation by liquid-chromatography-coupled mass spectrometry (LC–MS); parameters: dose 5 uM, timepoint 0, 1.5, 3, 6, 9, 12 hours; conditions: 5 µM
[10] = The drug is tested on Eubacterium rectale strain: DSM17629 for biotransformation under anaerobic condition. The drug concentrations were measured over 6 timepoints collected between 0 and 12 hours of incubation by liquid-chromatography-coupled mass spectrometry (LC–MS); parameters: dose 5 uM, timepoint 0, 1.5, 3, 6, 9, 12 hours; conditions: agathobacter rectalis, 5 µM
[11] = The drug is tested on Lactobacillus fermentum strain: DSM20052 for biotransformation under anaerobic condition. The drug concentrations were measured over 6 timepoints collected between 0 and 12 hours of incubation by liquid-chromatography-coupled mass spectrometry (LC–MS); parameters: dose 5 uM, timepoint 0, 1.5, 3, 6, 9, 12 hours; conditions: limosilactobacillus fermentum, 5 µM
[12] = The drug is tested on Lactobacillus gasseri strain: DSM20243 for biotransformation under anaerobic condition. The drug concentrations were measured over 6 timepoints collected between 0 and 12 hours of incubation by liquid-chromatography-coupled mass spectrometry (LC–MS); parameters: dose 5 uM, timepoint 0, 1.5, 3, 6, 9, 12 hours; conditions: 5 µM
[13] = The drug is tested on Lactobacillus paracasei strain: ATCC27092 for biotransformation under anaerobic condition. The drug concentrations were measured over 6 timepoints collected between 0 and 12 hours of incubation by liquid-chromatography-coupled mass spectrometry (LC–MS); parameters: dose 5 uM, timepoint 0, 1.5, 3, 6, 9, 12 hours; conditions: lacticaseibacillus paracasei, 5 µM
[14] = The drug is tested on Streptococcus sanguinis strain: DSM20567 for biotransformation under anaerobic condition. The drug concentrations were measured over 6 timepoints collected between 0 and 12 hours of incubation by liquid-chromatography-coupled mass spectrometry (LC–MS); parameters: dose 5 uM, timepoint 0, 1.5, 3, 6, 9, 12 hours; conditions: 5 µM
[15] = (§2) The drug is tested on Actinomyces graevenitzii strain: DSM15540 for biotransformation under microaerobic condition. The drug concentrations were measured over 6 timepoints collected between 0 and 12 hours of incubation by liquid-chromatography-coupled mass spectrometry (LC–MS); parameters: dose 5 uM, timepoint 0, 1.5, 3, 6, 9, 12 hours; conditions: 5 µM
[16] = The drug is tested on Gemella haemolysans strain: DSM107751 for biotransformation under microaerobic condition. The drug concentrations were measured over 6 timepoints collected between 0 and 12 hours of incubation by liquid-chromatography-coupled mass spectrometry (LC–MS); parameters: dose 5 uM, timepoint 0, 1.5, 3, 6, 9, 12 hours; conditions: 5 µM
[17] = The drug is tested on Lactobacillus paracasei strain: ATCC27092 for biotransformation under microaerobic condition. The drug concentrations were measured over 6 timepoints collected between 0 and 12 hours of incubation by liquid-chromatography-coupled mass spectrometry (LC–MS); parameters: dose 5 uM, timepoint 0, 1.5, 3, 6, 9, 12 hours; conditions: lacticaseibacillus paracasei, 5 µM
[18] = as §1, with “the gut metagenome community of A-02 with ENA study accession number: PRJEB31790” for “Bifidobacterium longum strain: DSM20088”, “7” for “6”; parameters: dose 5 uM, timepoint 0, 0.75, 1.5, 3, 6, 9, 12 hours; conditions: 5 µM
[19] = as §1, with “the gut metagenome community of A-06 with ENA study accession number: PRJEB31790” for “Bifidobacterium longum strain: DSM20088”, “7” for “6”; parameters: dose 5 uM, timepoint 0, 0.75, 1.5, 3, 6, 9, 12 hours; conditions: 5 µM
[20] = as §1, with “the gut metagenome community of A-08 with ENA study accession number: PRJEB31790” for “Bifidobacterium longum strain: DSM20088”, “7” for “6”; parameters: dose 5 uM, timepoint 0, 0.75, 1.5, 3, 6, 9, 12 hours; conditions: 5 µM
[21] = as §1, with “the gut metagenome community of P-02 with ENA study accession number: PRJEB31790” for “Bifidobacterium longum strain: DSM20088”, “7” for “6”; parameters: dose 5 uM, timepoint 0, 0.75, 1.5, 3, 6, 9, 12 hours; conditions: 5 µM
[22] = as §1, with “the gut metagenome community of P-03 with ENA study accession number: PRJEB31790” for “Bifidobacterium longum strain: DSM20088”, “7” for “6”; parameters: dose 5 uM, timepoint 0, 0.75, 1.5, 3, 6, 9, 12 hours; conditions: 5 µM
[23] = as §1, with “the gut metagenome community of T-04 with ENA study accession number: PRJEB31790” for “Bifidobacterium longum strain: DSM20088”, “7” for “6”; parameters: dose 5 uM, timepoint 0, 0.75, 1.5, 3, 6, 9, 12 hours; conditions: 5 µM
[24] = as §1, with “the gut metagenome community of T-05 with ENA study accession number: PRJEB31790” for “Bifidobacterium longum strain: DSM20088”, “7” for “6”; parameters: dose 5 uM, timepoint 0, 0.75, 1.5, 3, 6, 9, 12 hours; conditions: 5 µM
[25] = as §2, with “the gut metagenome community of A-02 with ENA study accession number: PRJEB31790” for “Actinomyces graevenitzii strain: DSM15540”, “7” for “6”; parameters: dose 5 uM, timepoint 0, 0.75, 1.5, 3, 6, 9, 12 hours; conditions: 5 µM
[26] = as §2, with “the gut metagenome community of A-03 with ENA study accession number: PRJEB31790” for “Actinomyces graevenitzii strain: DSM15540”, “7” for “6”; parameters: dose 5 uM, timepoint 0, 0.75, 1.5, 3, 6, 9, 12 hours; conditions: 5 µM
[27] = as §2, with “the gut metagenome community of A-09 with ENA study accession number: PRJEB31790” for “Actinomyces graevenitzii strain: DSM15540”, “7” for “6”; parameters: dose 5 uM, timepoint 0, 0.75, 1.5, 3, 6, 9, 12 hours; conditions: 5 µM
[28] = as §2, with “the gut metagenome community of P-02 with ENA study accession number: PRJEB31790” for “Actinomyces graevenitzii strain: DSM15540”, “7” for “6”; parameters: dose 5 uM, timepoint 0, 0.75, 1.5, 3, 6, 9, 12 hours; conditions: 5 µM
[29] = as §2, with “the gut metagenome community of T-04 with ENA study accession number: PRJEB31790” for “Actinomyces graevenitzii strain: DSM15540”, “7” for “6”; parameters: dose 5 uM, timepoint 0, 0.75, 1.5, 3, 6, 9, 12 hours; conditions: 5 µM
[30] = as §2, with “the gut metagenome community of T-05 with ENA study accession number: PRJEB31790” for “Actinomyces graevenitzii strain: DSM15540”, “7” for “6”; parameters: dose 5 uM, timepoint 0, 0.75, 1.5, 3, 6, 9, 12 hours; conditions: 5 µM

Bacterial Biotransformation [1]: Compound metabolized
Bacterial Biotransformation [2]: Compound metabolized
Bacterial Biotransformation [3]: Compound metabolized
Bacterial Biotransformation [4]: Compound NOT metabolized
Bacterial Biotransformation [5]: Compound metabolized
Bacterial Biotransformation [6]: Compound NOT metabolized
Bacterial Biotransformation [7]: Compound NOT metabolized
Bacterial Biotransformation [8]: Compound NOT metabolized
Bacterial Biotransformation [9]: Compound NOT metabolized
Bacterial Biotransformation [10]: Compound NOT metabolized
Bacterial Biotransformation [11]: Compound NOT metabolized
Bacterial Biotransformation [12]: Compound metabolized
Bacterial Biotransformation [13]: Compound metabolized
Bacterial Biotransformation [14]: Compound metabolized
Bacterial Biotransformation [15]: Compound metabolized
Bacterial Biotransformation [17]: Compound NOT metabolized
Bacterial Biotransformation [18]: Compound metabolized
Bacterial Biotransformation [19]: Compound metabolized
Bacterial Biotransformation [20]: Compound metabolized
Bacterial Biotransformation [21]: Compound metabolized
Bacterial Biotransformation [22]: Compound metabolized
Bacterial Biotransformation [23]: Compound metabolized
Bacterial Biotransformation [24]: Compound metabolized
Bacterial Biotransformation [25]: Compound metabolized
Bacterial Biotransformation [26]: Compound metabolized
Bacterial Biotransformation [27]: Compound metabolized
Bacterial Biotransformation [28]: Compound metabolized
Bacterial Biotransformation [29]: Compound metabolized
Bacterial Biotransformation [30]: Compound metabolized
Structure (SMILES): COc1c(C)c2c(c(O)c1C/C=C(\C)CCC(=O)OCCN1CCOCC1)C(=O)OC2 [MYCOPHENOLATE MOFETIL]
Bacterial Biotransformation [16]: Compound metabolized
